Converted amounts (≈) assume the structure as drawn.

The values below come from patent US9403815B2, “Compounds and uses thereof in modulating levels of various amyloid beta peptide alloforms” (The Regents of the University of California, priority 2010, dated 2016).

For one data set, the system named is Aβtotal. Briefly: Sandwich ELISA for total Aβ peptides secreted by SH-SY5Y-APP cells.
Details: not given
Type of data set: cell-based, human. Here is the method: (§1) The SH-SY5Y-APP human cell line was derived by transfecting a human neuroblastoma (SH-SY5Y) cell line with a plasmid expressing wild type human APP751 cDNA and selecting for stable expression of human APP and human Aβ. In each case, the levels of Aβ42 or Aβtotal or Aβ38 peptides secreted into the media of these cells were measured using either two-site monoclonal antibody (mAb)-based sandwich ELISA assays (described below for Aβ42 and Aβtotal) or in the case of Aβ38 EC50's, using either the Meso Scale Aβ38, 40, 42 triplex kit along with the Meso Scale Sector Imager 6000 according to the manufacturer's protocols. This SH-SY5Y-APP human cell line was used for all cell-based Aβ peptide immunochemical assays.
(§2) SH-SY5Y-APP cells were plated at 75,000 cells/well in 96-well tissue culture plates. After 16-18 h, the culture medium was replaced with fresh medium containing either compound or vehicle. Replicates of 3 wells per test concentration were used, with 10 concentrations at ½ log step intervals. Vehicle (0.12% DMSO) is included as a control.
The Sandwich ELISA ASSAY for Measuring Inhibition of Total Aβ Peptides and Determination of Aβtotal Peptides IC50 Inhibition Values
Anti-Aβ1-12 monoclonal antibody was diluted 1/100 in 1×TBS. Vortex. 100 μl was pipetted into each well of a microplate. The coating monoclonal antibody covered the entire bottom of each well. Each microplate was covered with a plate sealer and placed in the refrigerator overnight.
Microplates were removed from the refrigerator and each well was rinsed with 200 μl TBS. The wells were blocked by pipetting 200 μl 1% BSA/TBS per well of each microplate. The microplates were incubated at room temperature for 60 minutes.
50 μl of sample was pipetted at the appropriate dilution into designated wells of the microplates. The microplates were incubated at room temperature for 2 hrs.
The biotinylated monoclonal antibody (anti-human Amyloid Beta Protein, Clone 4G8) was diluted 1/5000 in 1% BSA/TBS/0.1% Tween-20. After vortexing, 50 μl was pipetted into each well of each microplate. The microplates were incubated at room temperature on a laboratory bench top for 1 hour.
Alkaline Phosphatase Conjugated Streptavidin was diluted 1/10,000 in 1% BSA/TBS/0.1% Tween-20. Vortex. 50 μl was pipetted into each well of microplate. The microplates were incubated at room temperature on bench top for 1 h.
After finishing washing the microplates (≦5 microplates per assay), 50 μl of CSPD-Sapphire luminescence substrate (brought room temperature prior to use) was added to each well and the wells were incubated for 15 minutes at room temperature in the dark. The timer was started after finishing of the adding of the substrate solution to the first plate of the group of microplates. […]
Plates were read in a Glow Runner luminometer. […]
A general note: ELISA stands for enzyme-linked immunosorbent assay.
As to `CCn1nc(C(C)(C)C)cc1Nc1nc(-c2ccc(-n3cnc(C)c3)c(F)c2)cs1` [Compound 36], the “Total Aβ” value is “No Change”. For `Cc1cn(-c2ccc(-c3csc(Nc4c5c(nn4C)CCCC5)n3)cn2)cn1` [Compound 34], the “Total Aβ” value is on record as “No Change”. Still for that read-out and setting: the same measure for `Cc1cn(-c2ccc(-c3csc(Nc4cc(C(C)(C)C)nn4C)n3)cc2)cn1` [Compound 27]: “No Change”.

`Cc1cn(-c2ccc(-c3csc(Nc4c5c(nn4C)CCCC5)n3)cc2)cn1` [Compound 31]: the “Total Aβ” value is on record as “No Change”.

System in another data set: not listed separately
Briefly: Solubility at pH 6.6 and pH 7.4. Type of data set: physicochemical. Particulars: pH 6.6, aqueous buffer; pH6.6; read-out: Solubility (μM) pH6.6.
In general, solubility refers to how much of the substance goes into solution per volume. `CCn1nc2c(c1Nc1nc(-c3ccc(-n4cnc(C)c4)cc3)cs1)CCCC2` [Compound 39]: the solubility turned out to be 2.3 µM (≈ 0.93 µg/mL). Same read-out and setting: the figure for `CCn1nc2c(c1Nc1nc(-c3ccc(-n4cnc(C)c4)c(OC)c3)cs1)CCCC2` [Compound 41] is 7.9 µM (≈ 3.43 µg/mL).

Staying with this data set, now noted: pH 7.4, aqueous buffer; pH7.4; read-out: Solubility (μM) pH7.4.
Turning to `CCn1nc2c(c1Nc1nc(-c3ccc(-n4cnc(C)c4)c(OC)c3)cs1)CCCC2` [Compound 41], the solubility was 6.4 µM (≈ 2.78 µg/mL).

For another data set, the system named is Aβ42. Briefly: Sandwich ELISA for inhibition of Aβ42 secreted by SH-SY5Y-APP cells. Format: cell-based. Particulars: Homo sapiens. Here is the method:
as §1, §2
The Sandwich ELISA Assay for Measuring Inhibition of Aβ42 and Determination of Aβ42 IC50 Inhibition Values
An Anti-Aβ35-42 coating monoclonal antibody which is specific for the Aβ42 peptide, stored in 60 μl aliquots at −80° C. (thaw once and discard after use).
An Anti-Aβ1-12 alkaline phosphatase-conjugated monoclonal antibody, stored at 4° C.
Anti-Aβ35-42 monoclonal antibody was diluted 1/300 in 1×TBS. After vortexing, pipette 100 μl of antibody into each well of microplate. The antibody covered the entire bottom of each well. Each microplate was covered with a plate sealer and placed at 4° C. for 19 h.
Microplates were removed from the cold room, the coating monoclonal antibody were aspirated off from all wells. Each well was rinsed once with 200 μl TBS^2. The wells were blocked by pipetting 200 μl of 1% BSA/TBS blocking solution per well and the plates incubated at room temperature for 60 minutes on a laboratory benchtop.
Sample addition to plates: Directly following the 60 min block step, blocking buffer was aspirated off and 50 μl of sample was pipetted to each well and then standard curve samples (50 μl) were added in duplicate to top 2 rows.
The plates were incubated at room temperature for 2 h.
Anti-Aβ1-12 mAb-alkaline phosphatase conjugate was diluted 1/10,000 in 1% BSA/TBS/0.1% Tween-20 and vortexed. 50 μl was pipetted into each well of the microplate.
To all plates, 50 μl of CDP-Star (Sapphire) luminescence substrate (brought to room temperature prior to use) was added to each well and incubated for 15 min at room temperature in the dark. The timer was started after finishing adding the substrate to the first plate of the group. This step was done with a group of 5 plates or less.
Each microplate was read in a Glow Runner luminometer^3.
Data Analysis (Apply to Both Aβ42 and Aβtotal Sandwich ELISA Assays):
A. Calculations • 1. Average the sample values and calculate the SD (standard deviation) and % CV (all datapoints must be <30%). If not, determine if one well is an outlier by using the Grubbs test (Graphpad website). • 2. Convert sample values to pg/well using the linear fit of the standard curve. Footnotes (Apply to Both Aβ42 and Aβtotal Sandwich ELISA Assays)
What is called IC50 is the midpoint of a concentration-inhibition curve. Low values mean greater potency in that assay, high ones weaker potency in that assay. `COc1cc(-c2csc(Nc3cc(C(C)(C)C)nn3C(C)C)n2)ccc1-n1cnc(C)c1` [Compound 43] yielded an IC50 of 100 to 250 nM.

Consider `CCn1nc(C(C)(C)C)cc1Nc1nc(-c2ccc(-n3cnc(C)c3)c(F)c2)cs1` [Compound 36], for which the IC50 is < 100 nM. Same read-out and setting: the figure for `Cc1cn(-c2ccc(-c3csc(Nc4c5c(nn4C)CCCC5)n3)cn2)cn1` [Compound 34] is > 500 nM; for `COc1cc(-c2csc(Nc3c4c(nn3C)CCCC4)n2)ccc1-n1cnc(C)c1` [Compound 33] it is 100 to 250 nM. Still for that read-out and setting: the same measure for `Cc1cn(-c2ccc(-c3csc(Nc4c5c(nn4C)CCCC5)n3)cc2F)cn1` [Compound 32]: 100 to 250 nM; for `Cc1cn(-c2ccc(-c3csc(Nc4cc(C(C)(C)C)nn4C(C)C)n3)cc2F)cn1` [Compound 46]: < 100 nM. Still for that read-out and setting: the figure for `CCn1nc2c(c1Nc1nc(-c3ccc(-n4cnc(C)c4)c(F)c3)cs1)CCCC2` [Compound 40] is 100 to 250 nM; for `CCn1nc2c(c1Nc1nc(-c3ccc(-n4cnc(C)c4)cc3)cs1)CCCC2` [Compound 39] it is > 500 nM. On to `CCCn1nc(C(C)(C)C)cc1Nc1nc(-c2ccc(-n3cnc(C)c3)c(F)c2)cs1` [Compound 48], for which the IC50 was < 100 nM. On the same count and under the same terms, the figure for `Cc1cn(-c2ccc(-c3csc(Nc4cc(C(C)(C)C)nn4C)n3)cn2)cn1` [Compound 30] is > 500 nM; for `CCn1nc2c(c1Nc1nc(-c3ccc(-n4cnc(C)c4)c(OC)c3)cs1)CCCC2` [Compound 41] it is < 100 nM; for `Cc1cn(-c2ccc(-c3csc(Nc4cc(C(C)(C)C)nn4C)n3)cc2)cn1` [Compound 27] it is 250 to 500 nM. On the same count and under the same terms, the same measure for `CCn1nc(C(C)(C)C)cc1Nc1nc(-c2ccc(-n3cnc(C)c3)cc2)cs1` [Compound 35]: 100 to 250 nM. On the same count and under the same terms, the same measure for `CCn1nc(C(C)(C)C)cc1Nc1nc(-c2ccc(-n3cnc(C)c3)nc2)cs1` [Compound 38]: 250 to 500 nM; for `CCCn1nc(C(C)(C)C)cc1Nc1nc(-c2ccc(-n3cnc(C)c3)c(OC)c2)cs1` [Compound 45]: < 100 nM. With `CCn1nc(C(C)(C)C)cc1Nc1nc(-c2ccc(-n3cnc(C)c3)c(OC)c2)cs1` [Compound 37], the half-maximal inhibitory concentration (IC50) was < 100 nM.

For the compound `CCn1nc2c(c1Nc1nc(-c3ccc(-n4cnc(C)c4)nc3)cs1)CCCC2` [Compound 42], the half-inhibitory concentration (IC50) is > 500 nM. On the same count and under the same terms, the figure for `Cc1cn(-c2ccc(-c3csc(Nc4cc(C(C)(C)C)nn4C)n3)cc2F)cn1` [Compound 28] is 100 to 250 nM. The same measure, in the same setting: the figure for `CCn1nc2c(c1Nc1nc(-c3ccc(-n4cnc(C)c4)c(OC)n3)cs1)CCCC2` [Compound 49] is < 100 nM.

For `COc1cc(-c2csc(Nc3cc(C(C)(C)C)nn3C)n2)ccc1-n1cnc(C)c1` [Compound 29], the IC50 lay within 100 to 250 nM. Same read-out and setting: the same measure for `Cc1cn(-c2ccc(-c3csc(Nc4c5c(nn4C)CCCC5)n3)cc2)cn1` [Compound 31]: 100 to 250 nM.

A further data set relates to NOTCH. As to the kind of experiment: Western blot of NOTCH proteolysis (NICD production) in H4-APP751 cells transfected with NδED. Type of data set: cell-based, human. As to conditions: 500 nM, 24 hrs. On the procedure: Stable H4 human neuroglioma cells over-expressing human APP751 (H4-APP751 cells), were transfected with the NδED construct (Lanes 1-6), and then treated with vehicle (DMSO; Lanes 1-2 Control), 500 nM GSM41 (test compound), or 500 nM DAPT (Lanes 5-6 inhibitor of gamma secretase) for another 24 hrs. Additionally H4-APP751 cells were transfected with the NICD construct (as a reference of NICD; Lanes 7-8). Cells were harvested 48 hrs post transfection and subjected to Western blotting analysis. Myc antibody was utilized to assess the NδED and NICD tagged with Myc on their N-termini. β-Actin was utilized as the loading control.
For orientation: In western blotting, separated proteins are transferred to a membrane and probed.
Consider `C[C@H](NC(=O)Cc1cc(F)cc(F)c1)C(=O)N[C@H](C(=O)OC(C)(C)C)c1ccccc1` [DAPT, reference compound], for which the “NICD levels (NOTCH proteolysis) compared to control” value was “decreased NICD levels”. Same read-out and setting: the same measure for `CCn1nc2c(c1Nc1nc(-c3ccc(-n4cnc(C)c4)c(OC)c3)cs1)CCCC2` [Compound 41]: “did not change NICD levels”.

Another data set has as its system Aβ38. As to the kind of experiment: Meso Scale Aβ38, 40, 42 triplex assay for potentiation of Aβ38 in SH-SY5Y-APP cells. Type of data set: cell-based. Particulars: Homo sapiens, Meso Scale triplex kit. Here is the method: as §1, §2
The term EC50 denotes the concentration giving half of the maximal effect. As to `CCn1nc(C(C)(C)C)cc1Nc1nc(-c2ccc(-n3cnc(C)c3)c(F)c2)cs1` [Compound 36], the EC50 is > 500 nM. As for `CCn1nc2c(c1Nc1nc(-c3ccc(-n4cnc(C)c4)c(OC)c3)cs1)CCCC2` [Compound 41], the concentration giving a half-maximal response (EC50) is > 500 nM.

In the case of `CCn1nc(C(C)(C)C)cc1Nc1nc(-c2ccc(-n3cnc(C)c3)c(OC)c2)cs1` [Compound 37], the EC50 was 100 to 250 nM.
